Columns and labels:
[1] = test system: mäusepathogenen Influenza-Viren; assay type: in vivo, NMRI-Mäusen; details: 20 NMRI mice, 500 µg each injected in 1 % Squalan-in-Wasser-Lösung, all saline controls died
[2] = test system: immunkompetenten Zellen; assay: Activity of immunocompetent cells of the treated animals; assay type: in vivo, NMRI-Mäusen; details: cells of the animals treated with 500 µg substance in 1 % Squalan-in-Wasser-Lösung

## COC(=O)CC[C@@H](NC(=O)CNC(=O)CO[C@@H]1[C@H]2OC(C)(C)O[C@H]2O[C@@H]1[C@H]1COC(C)(C)O1)C(=O)OC [Beispiel 1, N-[ (1,2:5,6-Di-0-isopropyliden-α-D-glucofuranos-30-yl)-acetyl]-glycyl-D-glutaminsäure-dimethylester]
[1]
  überlebten (Tiere): 80%
[2]
  Aktivität der immunkompetenten Zellen: erhöhte Aktivität

— patent EP0233206B1, “SUGAR-[…] THEIR PHARMACEUTICAL USE” (priority 1985, dated 1987)
